Laboratory results: patent publication US20240299476A1, “USE OF A BIRNAVIRUS ALONE OR IN COMBINATION THERAPY FOR THE TREATMENT OF CANCER” (Probiogen AG, priority 2020, published 2024)

Legend:
[1] = tested on: HEK293; assay: IBDV replication with or without 5 mM 2-aminopurin, TCID50 titration, HEK293; assay type: cell-based; settings: HEK293 (normal RAS), IBDV MOI 0.05, 5 mM 2-AP versus none, 96 h
Experimental: (§1) FIG. 2: Enhancement of IBDV replication following treatment with 2-aminopurin in cell lines with normal RAS function (HEK293, AGE1.CR.PIX) but not in a RAS defective cell line (A549). Cells were infected with IBDV at MOI 0.05 either in the presence of 5 mM 2-aminopurin (2-AP) or without, cells together with supernatant were lysed by 3× freeze/thaw steps, cell debris was removed by centrifugation and the virus titer was quantified by TCID50.
(§2) Because susceptibility varies among cell lines, the positive impact of a RAS defect on IBDV replication has to be shown comparing cells of the same type with a specific propensity to replicate IBDV with normal and defect RAS function. Such RAS defect can be simulated in a cell line with normal RAS when cells are treated with 2-aminopurin. The drug prevents phosphorylation of protein kinase PKR that is prevented in cells with a RAS defect. The effect of 2-aminopurin on IBDV replication is studied in cell lines with (A549) and without a RAS mutation (AGE1.CR.PIX, HEK293).
(§3) HEK 293, A549, and AGE1.CR.pIX cells were infected with IBDV at MOI 0.05 either in the presence of 5 mM 2-aminopurin (2-AP) or without. […] Subsequently, the virus titer was quantified by TCID50 titration in different dilutions using adherent AGE1.CR.PIX cells. Based on the cytopathic effect (CPE) the TCID50 titer was evaluated 72 hours post infection (FIG. 2).

[2] = tested on: A549; assay: IBDV replication with or without 5 mM 2-aminopurin, TCID50 titration, A549 (RAS mutant); assay type: cell-based, human; settings: IBDV MOI 0.05, 5 mM 2-AP versus none, 96 h
Experimental: as §1, §2, §3

[3] = tested on: AGE1.CR.PIX; assay: IBDV replication with or without 5 mM 2-aminopurin, TCID50 titration, AGE1.CR.PIX; assay type: cell-based, duck; settings: AGE1.CR.PIX (normal RAS), IBDV MOI 0.05, 5 mM 2-AP versus none, 96 h
Experimental: as §1, §2, §3

[4] = tested on: stage IV hilar cholangiocarcinoma; assay: Compassionate use case report: cholangiocarcinoma; assay type: in vivo, human; settings: same patient before IBDV; agents added to ongoing low-dose chemotherapy; CA19-9 at diagnosis 2,729
Excerpt: A person approached the clinic for treatment of resistant stage IV hilar cholangiocarcinoma, CK7 positive, CK20 negative with confirmed peritoneal metastatic disease. During 2016 patient developed unexplained weight loss of approximately 10 kg, night pruritus. […] In January 2017 jaundice developed. Blood test on 19 Mar. […] Considering tumor location and potential involvement of both right and left lobes, no surgical procedure was considered, except liver transplantation. On 10 Apr. 2017 a biliary stent was introduced for drainage of rising levels of bilirubin >14 mg/dL. On 13 Apr. 2017 abdominal exploratory laparoscopy reviled peritoneal metastases and conventional chemotherapy was recommended but the patient preferred synergic combination of low doses of gemcitabine, leucovorin, fluorouracil, irinotecan and oxaliplatin administered over 48 h period every two weeks. After discovery of 2 mutations on BRCA1 (Exon 10/V9201) and BRCA2 (Exon 11/N2113S) it was decided to add PARP inhibitor and on 24 Jul. 2017 rucaparib was added and CA19-9 dropped to 287 IU/mL. CA19-9 increased following administration of nivolumab but stabilized at 250 IU/mL by adding abraxane, gemcitabine and oxaliplatin. Following addition of Erbitux and later on combinations of low-dose (1.0 mg/kg) ipilimumab and nivolumab (2 mg/kg) CA19-9 levels dropped from 369 IU/mL to normal levels. […]

Compound	Enhancement of IBDV replication (virus titer, TCID50) [1]	Effect on IBDV replication (virus titer, TCID50) [2]	Enhancement of IBDV replication (virus titer, TCID50) [3]	Tumor marker CA19-9 level after adding the agent (earlier therapy, patient history) [4]
Nc1ncc2[nH]cnc2n1 [2-aminopurine]	approximately 10 fold	no benefit	approximately 10 fold	
CNCc1ccc(-c2[nH]c3cc(F)cc4c3c2CCNC4=O)cc1 [rucaparib]				287 IU/mL
nivolumab				increased
